# According to patent publication US6465442B2, “Topical application of muscarinic and opioid agents for treatment of tinnitus” (priority 1999, dated 2002):
# “And” between values parts separate entries of the source, which are not always exact repeats. Equal entries are not always repeated.
# What was measured:
# [1] = Otic solution administered by drops to the affected ear of patients complaining of tinnitus; assay type: in vivo, human; conditions: every 4-6 hrs.
# [2] = as above; assay type: in vivo, human
# Description: A group of ten patients complaining of tinnitus were treated with an otic solution comprising about 500 μg/30 ml of neostigmine. One to two drops of the solution was administered to the affected ear about once every 4-6 hours. The patients reported relief within about 20 minutes after initial administration of the otic composition.
# [3] = individual tinnitus patients, stadol 1 mg/30 cc otic solution
# [4] = individual tinnitus patients, neostigmine 500 μg/30 cc otic solution, every 4-6 hrs.
# [5] = individual tinnitus patient, morphine 2 mg/30 cc otic solution
smiles,measurement,setting,value
"Oc1ccc2c(c1)[C@@]13CCCC[C@@]1(O)[C@@H](C2)N(CC1CCC1)CC3 [stadol, butorphanol]",Results (improvement),[1]; [3],60% and 80% (2×)
same,Side Effects,[1]; [3],None
CN(C)C(=O)Oc1cccc([N+](C)(C)C)c1 [neostigmine],relief of the tinnitus symptoms reported by patients,"[2]; group of ten patients, about 500 μg/30 ml otic solution, one to two drops about once every 4-6 hours",significant relief
same,time to relief after initial administration of the otic composition,"[2]; group of ten patients, about 500 μg/30 ml otic solution, one to two drops to affected ear",≤ 20 min
same,Results (improvement),[2]; [4],90% and 80% (4×) and 70%
same,Side Effects,[2]; [4],None
CN1CC[C@]23c4c5ccc(O)c4O[C@H]2[C@@H](O)C=C[C@H]3[C@H]1C5 [morphine],Results (improvement),[1]; [5],60%
same,Side Effects,[1]; [5],None
